Patent US7348425B2, “Inhibitors of HCV replication” (Bristol-Myers Squibb Company, priority 2004, dated 2008)
pEC50, pIC50: −log10 of the molar value.

Tests used:
[1] = molecular target: T1, HCV NS5B RdRp genotype 1b (Hepatitis C virus genotype 1b, UniProt Q9WMX2); test: Modified HCV NS5B RdRp enzyme assay (with preincubation); assay type: biochemical
T1 construct: The protein was expressed with an 18 amino acid C-terminal truncation to enhance the solubility; made in house; host or cells: E. coli BL21 (DE3), pET21a
Protocol: HCVNS5B RdRp cloning, expression, and purification. The cDNA encoding the NS5B protein of HCV, genotype 1b, was cloned into the pET21a expression vector. The protein was expressed with an 18 amino acid C-terminal truncation to enhance the solubility. The E. coli competent cell line BL21 (DE3) was used for expression of the protein. Cultures were grown at 37° C. for ˜4 hours until the cultures reached an optical density of 2.0 at 600 nm. The cultures were cooled to 20° C. and induced with 1 mM IPTG. Fresh ampicillin was added to a final concentration of 50 μg/ml and the cells were grown overnight at 20° C.
Cell pellets (3 L) were lysed for purification to yield 15-24 mgs of purified NS5B. The lysis buffer consisted of 20 mM Tris-HCl, pH 7.4, 500 mM NaCl, 0.5% triton X-100, 1 mM DTT, 1 mM EDTA, 20% glycerol, 0.5 mg/ml lysozyme, 10 mM MgCl2, 15 ug/ml deoxyribonuclease I, and Complete TM protease inhibitor tablets (Roche). After addition of the lysis buffer, frozen cell pellets were resuspended using a tissue homogenizer. To reduce the viscosity of the sample, aliquots of the lysate were sonicated on ice using a microtip attached to a Branson sonicator. The sonicated lysate was centrifuged at 100,000×g for 1 hr at 4° C. and filtered through a 0.2 μm filter unit (Corning).
The protein was purified using three sequential chromatography steps: Heparin sepharose CL-6B, polyU sepharose 4B, and Hitrap SP sepharose (Pharmacia). The chromatography buffers were identical to the lysis buffer but contained no lysozyme, deoxyribonuclease I, MgCl2 or protease inhibitor and the NaCl concentration of the buffer was adjusted according to the requirements for charging the protein onto the column. Each column was eluted with a NaCl gradient which varied in length from 5-50 column volumes depending on the column type. After the final chromatography step, the resulting purity of the enzyme is >90% based on SDS-PAGE analysis. The enzyme was aliquoted and stored at −80° C.
Standard HCV NS5B RdRp enzyme assay. HCV RdRp genotype Ib assays were run in a final volume of 60 μl in 96 well plates (Costar 3912). The assay buffer is composed of 20 mM Hepes, pH 7.5, 2.5 mM KCl, 2.5 mM MgCl2, 1 mM DTT, 1.6 U RNAse inhibitor (Promega N2515), 0.1 mg/ml BSA (Promega R3961), and 2% glycerol. All compounds were serially diluted (3-fold) in DMSO and diluted further in water such that the final concentration of DMSO in the assay was 2%. HCV RdRp genotype 1b enzyme was used at a final concentration of 28 nM. A polyA template was used at 6 nM, and a biotinylated oligo-dT12 primer was used at 180 nM final concentration. Template was obtained commercially (Amersham 27-4110). Biotinylated primer was prepared by Sigma Genosys. ^3H-UTP was used at 0.6 μCi (0.29 μM total UTP). Reactions were initiated by the addition of enzyme, incubated at 30° C. for 60 min, and stopped by adding 25 μl of 50 mM EDTA containing SPA beads (4 μg/μl, Amersham RPNQ 0007). Plates were read on a Packard Top Count NXT after >1 hr incubation at room temperature.
Modified HCV NS5B RdRp enzyme assay. A modified enzyme assay was performed essentially as described for the standard enzyme assay except for the following: The biotinylated oligo dT12 primer was precaptured on streptavidin-coated SPA beads by mixing primer and beads in assay buffer and incubating at room temperature for one hour. Unbound primer was removed after centrifugation. The primer-bound beads were resuspended in 20 mM Hepes buffer, pH 7.5 and used in the assay at final concentrations of 20 nM primer and 0.67 μg/μl beads. Order of addition in the assay: enzyme (14 nM) was added to diluted compound followed by the addition of a mixture of template (0.2 nM), ^3H-UTP (0.6 μCi, 0.29 μM), and primer-bound beads, to initiate the reaction; concentrations given are final. Reactions were allowed to proceed for 4 hours at 30° C.
The IC50 values for compounds were determined using seven different [I]. […]

[2] = tested on: HCV replicon; test: HCV replicon FRET assay; assay type: cell-based; conditions: Hepatitis C virus; FRET assay; read-out: EC50
Protocol: The IC50 values for compounds were determined using seven different [I]. IC50 values were calculated from the inhibition using the formula y=A+((B−A)/(1+((C/x)^D))). FRET Assay Preparation. To perform the HCV FRET screening assay, 96-well cell culture plates were used. The FRET peptide (Anaspec, Inc.) (Taliani et al., Anal. Biochem. 240:60-67 (1996), hereby incorporated by reference in its entirety) contains a fluorescence donor, EDANS, near one end of the peptide and an acceptor, DABCYL, near the other end. The fluorescence of the peptide is quenched by […] resonance energy transfer (RET) between the donor and the acceptor, but as the NS3 protease cleaves the peptide the products are released from RET quenching and the fluorescence of the donor becomes apparent. The assay reagent was made as follows: 5× cell Luciferase cell culture lysis reagent from Promega (#E153A) diluted to 1× with dH2O, NaCl added to 150 mM final, the FRET peptide diluted to 20 uM final from a 2 mM stock.
To prepare plates, HCV replicon cells, with or without a Renilla luciferase reporter gene, were trypsinized and placed into each well of a 96-well plate with titrated test compounds added in columns 3 through 12; columns 1 and 2 contained a control compound (HCV protease inhibitor), and the bottom row contained cells without compound. The plates were then placed in a CO2 incubator at 37 degrees C.
Assays. Subsequent to addition of the test compounds described above (FRET Assay Preparation), at various times the plate was removed and Alamar blue solution (Trek Diagnostics, #00-100) was added per well as a measure of cellular toxicity. After reading in a Cytoflour 4000 instrument (PE Biosystems), plates were rinsed with PBS and then used for FRET assay by the addition of 30 ul of the FRET peptide assay reagent described above (FRET Assay Preparation) per well. The plate was then placed into the Cytoflour 4000 instrument which had been set to 340 excite/490 emission, automatic mode for 20 cycles and the plate read in a kinetic mode. Typically, the signal to noise using an endpoint analysis after the reads was at least three-fold. Alternatively, after Alamar blue reading, plates were rinsed with PBS, 50 ul of DMEM (high glucose) without phenol red was added and plates were then used for luciferase assay using the Promega Dual-Glo Luciferase Assay System.
Compound analysis was determined by quantification of the relative HCV replicon inhibition and the relative cytotoxicity values. To calculate cytoxicity values, the average Alamar Blue fluorescence signals from the control wells were set as 100% non-toxic. The individual signals in each of the compound test wells were then divided by the average control signal and multiplied by 100% to determine […]. To calculate the HCV replicon inhibition values, an average background value was obtained from the two wells containing the highest amount of HCV protease inhibitor at the end of the assay period. These numbers were similar to those obtained from naïve Huh-7 cells.
The background numbers were then subtracted from the average signal obtained from the control wells and this number was used as 100% activity. The individual signals in each of the compound test wells were then divided by the averaged control values after background subtraction and multiplied by 100% to determine percent activity. EC50 values for a protease inhibitor titration were calculated as the concentration which caused a 50% reduction in FRET or luciferase activity. The two numbers generated for the compound plate, percent cytoxicity and percent activity were used to determine compounds of interest for further analysis.

[3] = modified method (with preincubation)

T1 sequence (Q9WMX2 2420-2992): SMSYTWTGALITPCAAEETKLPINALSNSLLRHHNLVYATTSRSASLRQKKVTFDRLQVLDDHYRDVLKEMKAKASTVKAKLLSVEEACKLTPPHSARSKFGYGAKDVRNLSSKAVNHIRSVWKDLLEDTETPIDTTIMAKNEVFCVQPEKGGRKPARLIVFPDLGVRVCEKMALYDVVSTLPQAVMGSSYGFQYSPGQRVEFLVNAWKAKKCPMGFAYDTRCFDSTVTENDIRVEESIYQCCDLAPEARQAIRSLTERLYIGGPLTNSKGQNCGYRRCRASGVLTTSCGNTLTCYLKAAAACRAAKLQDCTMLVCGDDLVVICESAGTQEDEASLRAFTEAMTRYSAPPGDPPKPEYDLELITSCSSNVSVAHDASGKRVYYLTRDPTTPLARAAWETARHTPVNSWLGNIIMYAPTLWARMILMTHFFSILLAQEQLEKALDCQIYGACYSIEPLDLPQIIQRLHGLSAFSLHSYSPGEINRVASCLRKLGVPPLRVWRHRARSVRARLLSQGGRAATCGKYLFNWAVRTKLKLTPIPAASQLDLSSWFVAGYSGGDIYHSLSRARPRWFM

SMILES | pIC50 [1, 3] | pEC50 [2] | pIC50 ([1]; preincubation protocol)
CN(C)C(=O)N1CCn2c(c(C3CCCCC3)c3ccc(C(=O)NS(=O)(=O)N(C)C)cc32)-c2ccccc21 | 6.00 to 7.70 | 6.00 to 8.00 | –
C[C@@H]1CN(C(=O)C2(F)Cc3ccccc3-c3c(C4CCCCC4)c4ccc(C(=O)O)cc4n3C2)C[C@H](O)O1 (stereo partly shown) | – | 5.00 to 6.00 | 6.00 to 8.00
COC(=O)c1ccc2c(C3CCCCC3)c3n(c2c1)CC(C(=O)O)=Cc1ccccc1-3 | 6.00 to 7.70 | 6.00 to 8.00 | –
O=C(NS(=O)(=O)c1ccccc1)c1ccc2c(C3CCCCC3)c3n(c2c1)CC(C(=O)N1CCOCC1)Cc1ccccc1-3 (stereo not shown) | 6.00 to 7.70 | 6.00 to 8.00 | –
COc1cccc2c1C=C(C(=O)N1C[C@@H](C)O[C@@H](C)C1)Cn1c-2c(C2CCCCC2)c2ccc(C(=O)O)cc21 | – | 6.00 to 7.30 | 6.00 to 8.00
COC(=O)C1=Cc2c(OC)cccc2-c2c(C3CCCCC3)c3ccc(C(=O)OC)cc3n2C1 | – | < 5.48 | < 5.40
CCOC(=O)N1CCn2c(c(C3CCCCC3)c3ccc(C(=O)NS(=O)(=O)C4CC4)cc32)-c2ccccc21 | 6.00 to 7.70 | 6.00 to 8.00 | –
O=C(O)c1ccc2c(C3CCCCC3)c3n(c2c1)CC(N1CCOCC1)Cc1ccccc1-3 (stereo not shown) | 6.00 to 7.70 | 6.00 to 8.00 | –
O=C(O)/C=C/c1ccc(NC(=O)C2(NC(=O)c3ccc4c(C5CCCCC5)c5n(c4c3)CCCc3ocnc3-5)CCCC2)cc1 | 6.00 to 7.70 | 6.00 to 8.00 | –
COC(=O)c1ccc2c(C3CCCCC3)c3n(c2c1)C[C@@H](O)[C@@H](O)c1ccccc1-3 | < 6.00 | 5.00 to 6.00 | –
CNC(=O)C1Cc2ccccc2-c2c(C3CCCCC3)c3ccc(C(=O)NC4(C(=O)Nc5ccc(/C=C/C(=O)O)cc5)CCCC4)cc3n2C1 (stereo not shown) | 6.00 to 7.70 | 6.00 to 8.00 | –
CN(C)S(=O)(=O)NC(=O)c1ccc2c(C3CCCCC3)c3n(c2c1)CC(=O)Nc1ccccc1-3 | 6.00 to 7.70 | 6.00 to 8.00 | –
CN(C)CCNC(=O)C1Cc2ccccc2-c2c(C3CCCCC3)c3ccc(C(=O)NC4(C(=O)Nc5ccc(/C=C/C(=O)O)cc5)CCCC4)cc3n2C1 (stereo not shown) | 6.00 to 7.70 | 6.00 to 8.00 | –
O=C(O)/C=C/c1ccc(NC(=O)C2(NC(=O)c3ccc4c(C5CCCCC5)c5n(c4c3)C[C@@H](O)[C@@H](O)c3ccccc3-5)CCCC2)cc1 | 6.00 to 7.70 | 6.00 to 8.00 | –
CC(C)N(C)C(=O)C1=Cc2ccccc2-c2c(C3CCCCC3)c3ccc(C(=O)NS(=O)(=O)N(C)C)cc3n2C1 | 6.00 to 7.70 | 6.00 to 8.00 | –
O=C(NS(=O)(=O)N1CCCC1)c1ccc2c(C3CCCCC3)c3n(c2c1)CC(C(=O)N1CCOCC1)=Cc1ccccc1-3 | 6.00 to 7.70 | 6.00 to 8.00 | –

SMILES | pIC50 [1, 3] | pEC50 [2] | pIC50 ([1]; preincubation protocol)
COC(=O)/C=C/c1ccc(NC(=O)C2(NC(=O)c3ccc4c(C5CCCCC5)c5n(c4c3)C[C@@H](O)[C@@H](O)c3ccccc3-5)CCCC2)cc1 | 6.00 to 7.70 | > 7.00 | –
COC(=O)c1ccc2c(C3CCCCC3)c3n(c2c1)C/C(=N/O)Cc1ccccc1-3 | < 6.00 | 6.00 to 8.00 | –
CN(C)C(=O)C1=Cc2ccccc2-c2c(C3CCCCC3)c3ccc(C(=O)O)cc3n2C1 | 6.00 to 7.70 | 6.00 to 8.00 | –
O=C(O)c1ccc2c(C3CCCCC3)c3n(c2c1)C(C(=O)N1CCOCC1)CCc1ccccc1-3 (stereo not shown) | – | < 5.48 | < 4.90
O=C(O)/C=C/c1ccc2[nH]c(C3(NC(=O)c4ccc5c(C6CCCCC6)c6c7ccccc7ncn6c5c4)CCCC3)nc2c1 | 6.00 to 7.70 | 6.00 to 8.00 | –
CN(C)S(=O)(=O)NC(=O)c1ccc2c(C3CCCCC3)c3n(c2c1)CC(C(=O)N1CCNCC1)=Cc1ccccc1-3 | 6.00 to 7.70 | 6.00 to 8.00 | –
O=C(O)/C=C/c1ccc(NC(=O)C2(NC(=O)c3ccc4c(C5CCCCC5)c5n(c4c3)CCCc3ccccc3-5)CCNCC2)cc1 [drawing 160] | 6.00 to 7.70 | 6.00 to 8.00 | –
O=C(O)/C=C/c1ccc(NC(=O)C2(NC(=O)c3ccc4c(C5CCCCC5)c5n(c4c3)CCCN(CCO)c3ccccc3-5)CCCC2)cc1 | 6.00 to 7.70 | 6.00 to 8.00 | –
COC(=O)/C=C/c1ccc(NC(=O)C2(NC(=O)c3ccc4c(C5CCCCC5)c5n(c4c3)CCCc3sc(C)nc3-5)CCCC2)cc1 | < 6.00 | < 5.00 | –
O=C(O)c1ccc2c(C3CCCCC3)c3n(c2c1)CC(C(=O)N1CCOCC1)Cc1ccncc1-3 (stereo not shown) | 6.00 to 7.70 | 6.00 to 8.00 | –
COc1ccc2c(c1)CC(C(=O)N1CCOCC1)Cn1c-2c(C2CCCCC2)c2ccc(C(=O)O)cc21 (stereo not shown) | 6.00 to 7.70 | 6.00 to 8.00 | –
CCN(CC)S(=O)(=O)NC(=O)c1ccc2c(C3CCCCC3)c3n(c2c1)CC(C(=O)N1CCOCC1)=Cc1ccccc1-3 | 6.00 to 7.70 | 6.00 to 8.00 | –
O=C(O)c1ccc2c(C3CCCCC3)c3n(c2c1)CC(C(=O)N1CCOCC1)=Cc1ccc(Cl)cc1-3 | 6.00 to 7.70 | 5.00 to 6.00 | –
CS(=O)(=O)NC(=O)c1ccc2c(C3CCCCC3)c3n(c2c1)CC=Cc1ncccc1-3 | 6.00 to 7.70 | < 5.00 | –
O=C(O)/C=C/c1ccc(NC(=O)C2(NC(=O)c3ccc4c(C5CCCCC5)c5n(c4c3)CCCc3nccnc3-5)CCCC2)cc1 | 6.00 to 7.70 | > 7.00 | –
CN(C)S(=O)(=O)NC(=O)c1ccc2c(C3CCCCC3)c3n(c2c1)CC(C(=O)N1CCN(c2ccncc2)CC1)=Cc1ccccc1-3 | 6.00 to 7.70 | 6.00 to 8.00 | –
